The conditions of this data set: Liquid, Closed cell (Static) method.

Molecules are shown by their SMILES. Numbers after ± are expanded uncertainties.

One may read the vapor or sublimation pressure as the equilibrium pressure above the liquid or solid.

`CC12CCC(CC1)C(C)(C)O2` [1,3,3-trimethyl-2-oxabicyclo[2.2.2]octane]: the “vapor or sublimation pressure” value runs as follows: (278.15 K) 0.071 ± 0.002 kPa; (283.15 K) 0.093 ± 0.002 kPa; (288.15 K) 0.13 ± 0.002 kPa; (293.15 K) 0.178 ± 0.003 kPa; (298.15 K) 0.253 ± 0.003 kPa; (303.15 K) 0.346 ± 0.004 kPa. Moreover, the “vapor or sublimation pressure” value (308.15 K) was determined as 0.477 ± 0.006 kPa, the “vapor or sublimation pressure” value (313.15 K) is reported as 0.627 ± 0.007 kPa, the “vapor or sublimation pressure” value (318.15 K) was 0.828 ± 0.009 kPa and the “vapor or sublimation pressure” value (323.15 K) was determined as 1.101 ± 0.011 kPa.

For the molecule `CCO` [ethanol], the “vapor or sublimation pressure” value reads like this: (278.15 K) 2.264 ± 0.021 kPa; (283.15 K) 3.147 ± 0.024 kPa; (288.15 K) 4.327 ± 0.032 kPa; (293.15 K) 5.876 ± 0.04 kPa; (298.15 K) 7.798 ± 0.051 kPa; (303.15 K) 10.41 ± 0.066 kPa. Besides, the “vapor or sublimation pressure” value is, setting by setting: (308.15 K) 13.71 ± 0.084 kPa; (313.15 K) 17.9 ± 0.1 kPa; (318.15 K) 23.06 ± 0.13 kPa; (323.15 K) 29.46 ± 0.15 kPa.
